Here are results for two compounds from paper PMC6242907, “Molecular basis of maintaining an oxidizing environment under anaerobiosis by soluble fumarate reductase” (Nature Communications, 2018).

Assay [1] concerns the target T1, Osm1 (Saccharomyces cerevisiae, UniProt P21375).
T1 construct: residues 32-501, N-terminal His6 tag and thrombin site in pET28a, E. coli BL21(DE3); tag removed by trypsin for crystals
The assay can be described thus: X-ray crystal structure, […] Å. Type of assay: binding.

Assay [2] has as its target T1, Osm1. The assay can be described thus: isothermal titration calorimetry. It is filed as binding. From the text: isothermal titration calorimetry on Osm1 | Injection of FAD into the ITC sample cell containing holo-Osm1 created an exothermic response
On the technique in general: In ITC the heat of successive injections is recorded.

Assay [3] deals with T2, Osm1 (Saccharomyces cerevisiae, UniProt P21375, S78K/P162R).
T2 construct: residues 32-501, N-terminal His6 tag and thrombin site in pET28a, E. coli BL21(DE3); tag removed by trypsin for crystals
In words: isothermal titration calorimetry. The conditions noted are these: second FAD-binding pocket; 1 mM FAD injected into 28 µM double mutant.

In the next assay the target is T3, Ero1 (Saccharomyces cerevisiae, UniProt Q03103).
T3 construct: residues 56-424, His6-MBP fusion from E. coli Origami B(DE3), H6-MBP cleaved off by TEV protease; FAD-containing
T3 sequence (Q03103 56-424): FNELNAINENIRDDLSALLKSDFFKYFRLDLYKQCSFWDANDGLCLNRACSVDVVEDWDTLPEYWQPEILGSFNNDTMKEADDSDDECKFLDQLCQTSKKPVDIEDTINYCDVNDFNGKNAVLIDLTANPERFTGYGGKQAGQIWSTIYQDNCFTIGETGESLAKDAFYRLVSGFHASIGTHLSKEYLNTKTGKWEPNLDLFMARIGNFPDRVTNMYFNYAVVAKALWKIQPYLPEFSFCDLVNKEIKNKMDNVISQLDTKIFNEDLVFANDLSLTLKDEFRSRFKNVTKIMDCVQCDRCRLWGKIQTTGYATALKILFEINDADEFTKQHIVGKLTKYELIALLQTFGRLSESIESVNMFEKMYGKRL
In words: free flavin reduction at […] nm. Type of assay: biochemical. The conditions noted are these: free FAD as electron acceptor; DTT and thioredoxin as reductant, airtight, oxygen-depleted.

T1 sequence (P21375 32-501): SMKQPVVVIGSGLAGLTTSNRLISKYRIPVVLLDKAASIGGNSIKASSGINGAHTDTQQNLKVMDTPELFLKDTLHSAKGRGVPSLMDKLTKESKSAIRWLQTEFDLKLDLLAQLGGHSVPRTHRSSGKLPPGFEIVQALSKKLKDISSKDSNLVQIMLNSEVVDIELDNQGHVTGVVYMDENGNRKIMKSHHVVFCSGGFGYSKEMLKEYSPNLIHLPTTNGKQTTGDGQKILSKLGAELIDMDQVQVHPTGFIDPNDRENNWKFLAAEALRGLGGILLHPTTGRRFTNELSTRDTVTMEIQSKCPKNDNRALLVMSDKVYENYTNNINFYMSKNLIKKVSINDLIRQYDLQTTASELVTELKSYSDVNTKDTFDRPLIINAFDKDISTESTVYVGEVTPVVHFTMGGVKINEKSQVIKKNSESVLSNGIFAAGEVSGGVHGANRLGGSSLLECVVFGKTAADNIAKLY
T2 sequence (P21375 32-501 S78K/P162R): as the sequence (P21375 32-501) above, with S47K, P131R counted along it

For `Cc1cc2nc3c(=O)[nH]c(=O)nc-3n(C[C@H](O)[C@H](O)[C@H](O)COP(=O)(O)OP(=O)(O)OC[C@H]3O[C@@H](n4cnc5c(N)ncnc54)[C@H](O)[C@@H]3O)c2cc1C` [FAD], the “X-ray crystal structure, 1.8 Å” value at Osm1 [1] (first (cofactor) site, non-covalent, complex with fumarate) was “residues, including A45, K66, N73, S74, S79, G80, V194, D260, E467, S482, and L483”. Moreover, binding on Osm1 [2] was characterised by a dissociation constant (Kd) of 4.92 µM. The “no detectable thermal response” value on Osm1 [3] is “injection of FAD into the S78K/P162R mutant did not show any detectable thermal response”. At Ero1, the “free flavin reduction at 450 nm” value is “Ero1 could only use free FAD, but not FMN or riboflavin, under oxygen-depleted conditions”.

With `O=C(O)/C=C/C(=O)O` [fumarate], the “X-ray crystal structure, 1.8 Å” value on Osm1 [1] (active site next to the isoalloxazine ring of cofactor FAD) is “S78, S79, H281, R326, H435, R477, and G480 from Osm1 are involved in the binding of fumarate”.

As usually defined, the Kd is the free concentration of one partner at which half of the binding sites on the other are occupied at equilibrium, for simple one-to-one binding.
